Columns and labels:
[1] = Chemical stability analysis in acidic conditions with HPLC monitoring; format: physicochemical; conditions: 1% HCl/MeOH/rt; peak area percentage by HPLC; preliminary
HIV-1NL4-3 = test: HIV-1 infectivity assay, single cycle infection, Luc reporter in TZM-bl cells; format: cell-based; conditions: HIV-1NL4-3 in TZM-bl cells, discussion of Table 2

Compound | Purity (area %) Reaction Time = 1 min [1] [%] | anti-HIV activity (in words) (HIV-1NL4-3)
CCc1cc(=O)c2ccc(OC(C)C)c(COC(=O)C34CCC(C)(C(=O)O3)C4(C)C)c2o1 (stereo not drawn) [Compound 12, 4′-((−)-Camphanoyloxymethyl)-2-ethyl-7-isopropoxy-4H-chromen-4-one] | 100 | –
CCc1cc(=O)c2ccc(OCc3cc(OC)c(OC)cc3[N+](=O)[O-])c(COC(=O)[C@@]34CCC(C)(C(=O)O3)C4(C)C)c2o1 [Compound 28, 4′-((−)-Camphanoyloxymethyl)-7-(4,5-dimethoxy-2-nitrobenzyloxy)-2-ethyl-4H-chromen-4-one] | – | lost all activity
Cc1cc(=O)oc2c(COC(=O)[C@@]34CC[C@@](C)(C(=O)O3)C4(C)C)c(SC(C)C)ccc12 [Compound 32, 4′-((−)-Camphanoyloxymethyl)-7-(isopropylthio)-4-methyl-2H-chromen-2-one] | 100 | –
Cc1cc(=O)oc2c3c(ccc12)OC(C)(C)[C@H](OC(=O)[C@@]12CC[C@@](C)(C(=O)O1)C2(C)C)[C@@H]3OC(=O)[C@@]12CC[C@@](C)(C(=O)O1)C2(C)C [Compound 2, 4-methyl-DCK] | 100 | –
CCc1cc(=O)c2ccc3c(c2o1)[C@@H](OC(=O)C12CCC(C)(C(=O)O1)C2(C)C)[C@@H](OC(=O)C12CCC(C)(C(=O)O1)C2(C)C)C(C)(C)O3 (stereo partly drawn) [Compound 4, 2-ethyl DCP] | 100 | –
CCc1cc(=O)c2ccc(OCc3cccc(C(F)(F)F)c3)c(COC(=O)[C@@]34CCC(C)(C(=O)O3)C4(C)C)c2o1 [Compound 20, 4′-((−)-Camphanoyloxymethyl)-2-ethyl-7-(3-(trifluoromethyl)benzyloxy)-4H-chromen-4-one] | – | lost all activity
Cc1cc(=O)oc2c(COC(=O)[C@@]34CC[C@@](C)(C(=O)O3)C4(C)C)c(OC(C)C)ccc12 [Compound 7] | 100 | –
CCc1cc(=O)c2ccc(OCc3cc(OC)cc(OC)c3)c(COC(=O)C34CCC(C)(C(=O)O3)C4(C)C)c2o1 (stereo not drawn) [Compound 25, 4′-((−)-Camphanoyloxymethyl)-7-(3,5-dimethoxybenzyloxy)-2-ethyl-4H-chromen-4-one] | – | very weak anti-HIV activity
CCc1cc(=O)c2ccc(OC3CCOC3=O)c(COC(=O)[C@@]34CCC(C)(C(=O)O3)C4(C)C)c2o1 (stereo partly drawn) [Compound 16, 4′-((−)-Camphanoyloxymethyl)-2-ethyl-7-(2-oxo-tetrahydrofuran-3-yloxy)-4H-chromen-4-one] | – | lost all activity

Reference: article PMC3183312 (European journal of medicinal chemistry, 2011)
